Source: patent publication US4579947A, “Substituted phenylalkylpiperazinylpropyl (ureas or thioureas) useful for treatment of immunological, inflammatory and allergic disorder” (Boehringer Ingelheim Pharmaceuticals, Inc., priority 1984, dated 1986)
Counter-ions that a name gives are not always drawn.

Key:
Format in all cases: cell-based
[1] = test system: isolated guinea pig ileum; test: Antagonism of histamine-induced contraction of isolated guinea pig ileum; details: Cavia porcellus; Table C; histamine final concentration 0.2 μg/ml; read-out: Inhibition IC50 (histamine-induced contraction of isolated guinea pig ileum)
Method: The antagonism of the effects of histamine on the contraction of isolated guinea pig ileum by the compounds of formula I can be determined by the procedure of G. Possanza, A. Bauen, and P. Stewart, Int. Arch. Allergy Appl. Immunol., 49, 289 (1975). The degree of inhibition is determined as the difference between the contraction caused by histamine (final concentration 0.2 μg/ml) alone and that seen in the presence of both histamine and the test compound. The inhibitory activity of the test compound is expressed as that concentration of the compound which causes a 50% reduction of the contractile response (IC50).

[2] = test system: human leukocytes (basophils); test: Inhibition of human leukocyte (basophil) histamine release in vitro (rabbit anti-human IgE); details: Table A, 60 minutes at 37° C., Int. = interference with test procedure; for IC50: Leukocyte, 1 h, read-out: Inhibition IC50 (histamine release from human leukocytes (basophils))
Method: Separation of Leukocytes: A modification of the method of L. Lichtenstein and A. Osler, J.Exp.Med. 120, 507 (1964) was used. Heparinized human blood (80-100 ml) is mixed with 20 ml of saline (0.2%) containing 0.6 gm of dextrose and 1.2 gm dextran in propylene centrifuge tubes. The mixture is kept at ambient temperature for 60-90 minutes to allow the separation of erythrocytes from the platelet-leukocyte-rich supernate. The supernate is removed and centrifuged for 8 minutes at 110×g in cold. The leukocyte pellet is washed 2× with Tris buffer and finally suspended in 150-180 ml Tris-ACM buffer at 1-2×10^6 cells/ml. 2. Reaction Mixture: The reaction is carried out in 12×75 mm plastic tubes at a total volume of 1.25 ml. The reaction medium includes 0.05 ml rabbit anti-human IgE (the antigen), 0.2 ml of the test compound in water at concentrations ranging from 10-1000 μM, and 1.0 ml of the leukocyte suspension. The reaction mixture is incubated in a 37° C. shaking water bath for 60 minutes. Upon completion of the reaction, the tubes are centrifuged and the supernatants collected. The protein is removed from the supernatants by precipitation with 0.2 ml of 8% perchloric acid. 3. Histamine Assay: Histamine release is measured by the automated fluorometric method of W. Siraganian and W. Hook in Chapter 102 of the Manual of Clinical Immunology, 2nd Edition, Edited by R. Rose and H. Friedman, Published by the American Society for Microbiology, Washington, D.C. 1980. Percent inhibition is calculated as follows: [formula] The concentration which causes a 50 percent inhibition (IC50) of histamine release is interpolated from a plot of percent inhibition versus logarithm of drug concentration.

[3] = test system: rat peritoneal mast cells; test: Inhibition of rat peritoneal mast cell histamine release; details: Mast cell, 1 h; Table B; in vitro, sheep anti-rat IgE or ovalbumin, 60 minutes at 37° C.; Int. = interference with test procedure; read-out: Inhibition IC50 (histamine release from rat peritoneal mast cells)
Method: Harvest of Peritoneal Mast Cells: After the rats are sacrificed with ether, 20 ml of Minimum Essential Medium (MEM) containing 20 units/ml heparin is injected into the peritoneum. The abdomen is massaged for one minute and the lavage fluid collected. The peritoneal cells are centrifuged at 1800 rpm for 8 minutes in cold. After two washes with Tris A buffer, the cells are resuspended in Tris ACM buffer at 2-33 10^6 cells/ml. 2. Reaction Mixture: The reaction is carried out in 12×75 mm plastic tubes at a total volume of 1.25 ml. The reaction mixture includes 0.5 ml (10-1000 μg) sheep anti-rat IgE or ovalbumin, 0.2 ml of the test compound in water at concentrations ranging from 10-1000 μM, 0.5 ml phosphatidylserine solution (20-60 μg to each tube), and 0.5 ml of cell suspension. The reaction mixture is incubated in a 37° C. shaking water bath for 60 minutes. Upon completion of the reaction, the tubes are centrifuged and the supernatants collected. The protein is removed from the supernatants by precipitation with 0.2 ml of 8% perchloric acid. 3. Histamine Assay: Histamine release is measured by the automated fluorometric method of Siraganian, supra. The concentration which causes a 50% inhibition (IC50) of histamine release is computed as in Part A.

Compound	IC50 [1] [µM]	IC50 [2] [µM]	IC50 [3] [µM]	Inhibition IC50 (histamine release from human leukocytes (basophils)) [2]
O=C(NCCCN1CCN(Cc2ccc(Cl)cc2)CC1)NC1CCCCC1 [Example 1, 1-{3-[4-(4-Chlorobenzyl)piperazin-1-yl]propyl}-3-cyclohexylurea dihydrochloride]	0.015	50	108	–
CNC(=O)NCCCN1CCN(Cc2ccc(Cl)cc2)CC1 [Example 2, 1-{3-[4-(4-Chlorobenzyl)piperazin-1-yl]propyl}-3-methylurea dihydrochloride]	0.63	300	–	–
CCCCNC(=O)NCCCN1CCN(Cc2ccc(Cl)cc2)CC1 [Example 3, 1-{3-[4-(4-Chlorobenzyl)piperazin-1-yl]propyl}-3-n-butylurea dihydrochloride hemihydrate]	0.07	50	–	–
CCCCCCNC(=O)NCCCN1CCN(Cc2ccc(Cl)cc2)CC1 [Example 4, 1-{3-[4-(4-Chlorobenzyl)piperazin-1-yl]propyl}-3-n-hexylurea dihydrochloride]	0.05	8	110	–
CCCCCCCCNC(=O)NCCCN1CCN(Cc2ccc(Cl)cc2)CC1 [Example 5, 1{3-[4-(4-Chlorobenzyl)piperazin-1-yl]propyl}-3-n-octylurea diihydrochloride]	0.75	16	210	–
O=C(NCCCN1CCN(Cc2ccc(F)cc2)CC1)NC1CCCCC1 [Example 6, 1-{3-[4-(4-Fluorobenzyl)piperazin-1-yl]propyl}-3-cyclohexylurea dihydrochloride monohydrate]	0.11	50	–	–
O=C(NCCCN1CCN(Cc2ccccc2)CC1)NC1CCCCC1 [Example 7, 1-{3-(4-Benzylpiperazin-1-yl)propyl]-3-cyclohexylurea dihydrochloride]	0.32	240	–	–
O=C(NCCCN1CCN(Cc2ccccc2)CC1)Nc1ccccc1 [Example 8, 1-[3-(4-Benzylpiperazin-1-yl)propyl]-3-phenylurea]	0.21	400	–	–
O=C(NCCCN1CCN(Cc2ccc(Cl)cc2)CC1)Nc1ccccc1 [Example 9, 1-{3-[4-(4-Chlorobenzyl)piperazin-1-yl]propyl}-3-phenylurea]	0.05	78	> 1000	–
O=C(NCCCN1CCN(Cc2ccc(Cl)cc2)CC1)Nc1ccc(Cl)cc1 [Example 10, 1-{3-[4-(4-Chlorobenzyl)piperazin-1-yl]propyl}-3-(4-chlorophenyl)urea hydrochloride]	0.15	30	–	–
Cc1ccc(NC(=O)NCCCN2CCN(Cc3ccc(Cl)cc3)CC2)cc1 [Example 11, 1-{3-[4-(4-Chlorobenzyl)piperazin-1-yl]propyl}-3-(4-methylphenyl)urea dihydrochloride monohydrate]	0.065	37	–	–
COc1ccc(NC(=O)NCCCN2CCN(Cc3ccc(Cl)cc3)CC2)cc1 [Example 12, 1-{3-[4-(4-Chlorobenzyl)piperazin-1-yl]-propyl}-3-(4-methoxyphenyl)urea hydrochloride]	0.015	80	–	–
O=C(NCCCN1CCN(Cc2ccc(Cl)cc2)CC1)Nc1ccc(F)cc1 [Example 15, 1-{3-[4-(4-Chlorobenzyl)piperazin-1-yl]propyl}-3-(4-fluorophenyl)urea dihydrochloride monohydrate]	0.06	20	–	–
O=C(NCCCN1CCN(Cc2ccc(Cl)cc2)CC1)Nc1ccc([N+](=O)[O-])cc1 [Example 16, 1-{3-[4-(4-Chlorobenzyl)piperazin-1-yl]propyl}-3-(4-nitrophenyl)urea dihydrochloride]	0.018	30	–	–
O=C(NCCCN1CCCN(Cc2ccc(Cl)cc2)CC1)NC1CCCCC1 [Example 17, 1-{3-[4-(4-Chlorobenzyl)homopiperazin-1-yl]propyl}-3-cyclohexylurea dihydrochloride]	0.15	13	–	–
O=C(NCCCN1CCCN(Cc2ccc(Cl)cc2)CC1)Nc1ccccc1 [Example 18, 1-{3-[4-(4-Chlorobenzyl)homopiperazin-1-yl]propyl}-3-phenylurea dihydrochloride]	0.55	15	–	–
S=C(NCCCN1CCN(Cc2ccc(Cl)cc2)CC1)NC1CCCCC1 [Example 19, 1-{3-[4-(4-Chlorobenzyl)piperazin-1-yl]propyl}-3-cyclohexylthiourea]	0.11	26	–	–
S=C(NCCCN1CCN(Cc2ccc(Cl)cc2)CC1)Nc1ccccc1 [Example 20, 1-{3-[4-(4-Chlorobenzyl)piperazin-1-yl]propyl}-3-phenylthiourea]	0.1	37	–	–
CCCCCCNC(=S)NCCCN1CCN(Cc2ccc(Cl)cc2)CC1 [Example 21, 1-{3-[4-(4-Chlorobenzyl)piperazin-1-yl]propyl}-3-n-hexylthiourea dihydrochloride hemihydrate]	0.08	–	–	Int.
O=C(NCCCN1CCN(Cc2ccc(Cl)cc2)CC1)NCc1ccccc1 [Example 22, 1-{3-[4-(4-Chlorobenzyl)piperazin-1-yl]propyl}-3-benzylurea dihydrochloride]	0.23	112	–	–
CCCCCCNC(=O)NCCCN1CCN(CCc2ccc(Cl)cc2)CC1 [Example 23, 1-{3-[4-(4-Chlorophenethyl)piperazin-1-yl]propyl}-3-n-hexylurea dihydrochloride]	0.02	16	–	–
N#Cc1ccc(NC(=O)NCCCN2CCN(Cc3ccc(Cl)cc3)CC2)cc1 [Example 24, 1-{3-[4-(4-Chlorobenzyl)piperazin-1-yl]propyl}-3-(4-cyanophenyl)urea dihydrochloride monohydrate]	0.008	81	150	–
CCCCCCNC(=O)NCCCN1CCN(Cc2ccc(Cl)c(C(F)(F)F)c2)CC1.Cl.Cl [Example 26, 1-{3-[4-(3-Trifluoromethyl-4-chlorobenzyl)piperazin-1-yl]propyl}-3-n-hexylurea dihydrochloride]	0.09	–	–	Int.
N#Cc1ccc(NC(=O)NCCCN2CCN(CCCc3ccc(Cl)cc3)CC2)cc1 [Example 27, 1-{3-{4-[3-(4-Chlorophenyl)propyl]piperazin-1-yl}propyl}3-(4-cyanophenyl)urea dihydrocyloride monohydrate]	0.11	20	–	–
C=CCNC(=O)NCCCN1CCN(Cc2ccc(Cl)cc2)CC1 [Example 28, 1-{3-[4-(4-Chlorobenzyl)piperazin-1-yl]propyl}-3-allylurea dihydrochloride]	0.17	120	–	–
CC(=O)c1ccc(NC(=O)NCCCN2CCN(Cc3ccc(Cl)cc3)CC2)cc1 [Example 29, 1-{3-[4-(4-Chlorobenzyl)piperazin-1-yl]propyl}-3-(4-acetylphenyl)urea dihydrochloride dihydrate]	0.02	115	–	–
CCOc1ccc(NC(=O)NCCCN2CCN(Cc3ccc(Cl)cc3)CC2)cc1 [Example 30, 1-{3-[4-(4-Chlorobenzyl)piperazin-1-yl]propyl}-3-(4-ethoxyphenyl)urea dihydrochloride]	–	35	–	–
